The values that follow come from article PMC11187126, “Structure and dynamics of the pyroglutamylated RF-amide peptide QRFP receptor GPR103” (Nature Communications, 2024).

This assay deals with T1, GPR103 ΔCterm (Homo sapiens, UniProt Q96P65).
T1 construct: we truncated the C-terminal residues after G366 of human GPR103; expressed in transfected cells; host or cells: HEK293 cells, pCAGGS vector
T1 sequence (Q96P65 1-366): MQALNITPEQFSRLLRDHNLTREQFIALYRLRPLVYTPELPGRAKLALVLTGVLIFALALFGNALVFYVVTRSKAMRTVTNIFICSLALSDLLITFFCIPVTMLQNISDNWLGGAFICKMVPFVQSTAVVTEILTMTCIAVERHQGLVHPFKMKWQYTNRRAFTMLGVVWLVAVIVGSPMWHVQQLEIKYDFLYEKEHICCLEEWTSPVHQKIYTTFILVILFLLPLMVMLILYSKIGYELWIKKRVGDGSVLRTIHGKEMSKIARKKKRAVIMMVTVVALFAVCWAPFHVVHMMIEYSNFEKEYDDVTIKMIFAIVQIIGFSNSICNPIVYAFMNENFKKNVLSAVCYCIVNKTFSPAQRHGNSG
Put plainly: TGFα shedding assay; Exp. level WT (1:20). The format is cell-based. The protocol:
For the TGFα shedding assay and the flow cytometry analysis, we used human full-length QRFPR-encoding plasmids. Specifically, GPR103 was N-terminally modified with an HA signal sequence followed by a FLAG epitope and then a flexible linker ([…]; the FLAG epitope is underlined) and inserted into the pCAGGS vector. Plasmid encoding GPR103 mutants were generated using Quickchange Site-Directed Mutagensis kit (Agilent).
The TGFα shedding assay was performed as described previously with minor modifications. Plasmid transfection was performed in a 6-well plate with a mixture of 500 ng (per well in a 6-well plate) AP-TGFα-encoding plasmid and 200 ng GPR103-encoding plasmid. After 1-day culture, the transfected cells were harvested by trypsinization, pelleted by centrifugation at 190 × g for 5 min, and washed once with 5 mM HEPES (pH 7.4)-containing Hank’s Balanced Salt Solution (HBSS). After centrifugation, the cells were resuspended in 8 mL of the HEPES-containing HBSS. The cell suspension was seeded in a 96-well culture plate (cell plate) at a volume of 90 μL (per well hereafter) and incubated in a 37 °C incubator with 5% CO2 for 30 min. […] After spinning the cell plates at 190 × g for 2 min, 80 μL of conditioned media was transferred to an empty 96-well plate (conditioned media (CM) plate). Then, 80 μL of AP reaction solution (10 mM p-nitrophenylphosphate (p-NPP), 120 mM Tris-HCl (pH 9.5), 40 mM NaCl, and 10 mM MgCl2) was dispensed into the cell plates and the CM plates. Absorbance at 405 nm of the plates was measured using a microplate reader (SpectraMax 340 PC384, Molecular Devices) before and after 1-h incubation at room temperature. Ligand-induced AP-TGFα release was calculated by subtracting spontaneous AP-TGFα release signal from ligand-induced AP-TGFα release signal. The AP-TGFα release signals were fitted to a four-parameter sigmoidal concentration–response curve, using the Prism 10 software (GraphPad Prism). For each replicate experiment, the pEC50 parameter (negative logarithmic values of EC50 values) of the individual GPR103 mutants were normalized to that of the wild-type GPR103 performed in parallel, and resulting ∆pEC50 values were used to denote ligand response activity of the mutants. […]
Exp. le vel: WT (1:5 0)Exp. le vel: WT (1:5 0)Exp. le vel: WT (1:5 0)Exp. le vel: WT (1:2 0)Exp. le vel: WT (1:2 0)Exp. le vel: WT (1:1 0) […]
L1 4N - t e r mA F2 5N - t e r mA I 2 6N - t e r mA Y 2 9N - t e r mA C 9 82 .5 7A T10 22 .6 1A Exp . l eve l: WT (1 :5)Exp . l evel : >WT (1 :1)Exp. le vel: WT (1:2 0)Exp. le vel: WT (1:2 0)Exp. le vel: WT (1:5 0)Exp . l eve l: WT (1 :1) […]
Exp. le vel: WT (1:1 0)Exp. le vel: WT (1:2 0) C 1 1 83 .2 5AExp. le vel: WT (1:5 0)Exp. le vel: WT (1:5 0)Exp. le vel: WT (1:2 0)Exp . l eve l: WT (1 :5) […]
Exp. le vel: WT (1:5 0)Exp. le vel: WT (1:1 0)Exp. le vel: WT (1:5 0) E203ECL2AExp . l evel : >WT (1 :1)Exp. le vel: WT (1:5 0)Exp. le vel: WT (1:5 0) […]
Exp . l eve l: WT (1 :1) F28Exp. le vel: WT (1:5 0) C 2 8 56 .4 7AExp. le vel: WT (1:2 0) WExp. le vel: WT (1:2 0) F28Exp. le vel: WT (1:5 0)Exp . l evel : >WT (1 :1) […]
Exp. le vel: WT (1:5 0)Exp. le vel: WT (1:5 0) C 3 2 77 .4 8AExp . l eve l: WT (1 :5)Exp . l evel : >WT (1 :1)Exp . l evel : >WT (1 :1) […]
Suppl eme nt ary Figure 1 | Mutational analysis of GPR103. […]
mutants. Data are presented as mean values ± SEM, normally n=3-5; dots), each performed in triplicate. b-d Cell-surface expression (b) and QRFP26-in-duced activation of GPR103 (c, d) were analyzed by the flow cytometry and the TGFα shedding assay, respectively. From the concentration–response curves (a), Emax (c) and ΔpEC50 (d) values relative to the wild type were calculated. Colors in the mutant bars indicate an expression level matching to that of titrated wild type. Statistical analyses were performed using the ordinary one-way ANOVA followed by Dunnett tests with the expression-matched […]

Where two headings read alike, the source gives them in different places. No end group written: not given here.

For the substance TSGPLGNLAEELNGYSRKKGGFSFRF-NH2 [QRFP26], the Emax runs as follows: (Exp. #1) 83.85 % WT; (Exp. #2) 86.40 % WT; (Exp. #3) 89.99 % WT; (mean, read-out: Emax) 86.8%. In addition, for the setting “n = 3”, the EC50 was 11.2 nM.
